One experiment addresses T1, human Nav1.7 (Homo sapiens, UniProt Q15858).
T1 construct: expressed in transfected cells
Put plainly: PatchXpress automated patch-clamp, inactivated state block of Nav1.7. The experiment is classed as cell-based. The conditions noted are these: channels stably expressed in HEK 293 cells, 22° C., read-out: potency for the Nav 1.7 sodium ion channel (as measured by PatchXpress). On the procedure: (§1) Compounds were tested on human Nav1.7 and Nav1.5 channels stably expressed in HEK 293 cells. Activity toward Nav 1.7 and Nav 1.5 channels was assessed using the following assay methodology.
(§2) Sodium Current Measurements on the PatchXpress 7000®:
(§3) To measure inactivated state block of sodium channels, test compounds were characterized in an automated PatchXpress® assay (Molecular Devices) using a double-pulse protocol on human Nav1.7 and Nav1.5 channels stably expressed in HEK 293 cells. Cells were held at a potential 20 mV negative to V0.5 inact. An 8000 ms pre-pulse 7 mV positive to V0.5 inact was given followed by a hyperpolarizing 2 ms pulse to −120 mV and a 20 ms test pulse to −20 mV. Protocol was applied to cells in the absence, presence of compound and after washout. The temperature of PatchXpress instruments was maintained at 22° C. The following recording solutions were used. Internal solution (mM): 30 CsCl, 5 HEPES, 10 EGTA, 120 CsF, 5 NaF, 2 MgCl2. External solution (mM): 120 NMDG, 40 NaCl, 1 KCl, 0.5 MgCl2, 5 HEPES, 2.7 CaCl2.
(§4) For all electrophysiology experiments, offline analysis was used to correct for current rundown and to determine percent inhibition as a function of drug concentration. IC50 values were determined by fitting to the Hill equation.
For orientation: Patch clamp records ionic current or voltage across a cell membrane.

A further experiment addresses T2, human Nav1.5 (Homo sapiens, UniProt Q14524).
T2 construct: expressed in transfected cells
Put plainly: PatchXpress automated patch-clamp, inactivated state block of Nav1.5 (selectivity). The experiment is classed as cell-based. As to conditions: determined by PatchXpress measurement, HEK 293 cells. The procedure: as §1, §2, §3, §4

T1 sequence (Q15858 whole entry): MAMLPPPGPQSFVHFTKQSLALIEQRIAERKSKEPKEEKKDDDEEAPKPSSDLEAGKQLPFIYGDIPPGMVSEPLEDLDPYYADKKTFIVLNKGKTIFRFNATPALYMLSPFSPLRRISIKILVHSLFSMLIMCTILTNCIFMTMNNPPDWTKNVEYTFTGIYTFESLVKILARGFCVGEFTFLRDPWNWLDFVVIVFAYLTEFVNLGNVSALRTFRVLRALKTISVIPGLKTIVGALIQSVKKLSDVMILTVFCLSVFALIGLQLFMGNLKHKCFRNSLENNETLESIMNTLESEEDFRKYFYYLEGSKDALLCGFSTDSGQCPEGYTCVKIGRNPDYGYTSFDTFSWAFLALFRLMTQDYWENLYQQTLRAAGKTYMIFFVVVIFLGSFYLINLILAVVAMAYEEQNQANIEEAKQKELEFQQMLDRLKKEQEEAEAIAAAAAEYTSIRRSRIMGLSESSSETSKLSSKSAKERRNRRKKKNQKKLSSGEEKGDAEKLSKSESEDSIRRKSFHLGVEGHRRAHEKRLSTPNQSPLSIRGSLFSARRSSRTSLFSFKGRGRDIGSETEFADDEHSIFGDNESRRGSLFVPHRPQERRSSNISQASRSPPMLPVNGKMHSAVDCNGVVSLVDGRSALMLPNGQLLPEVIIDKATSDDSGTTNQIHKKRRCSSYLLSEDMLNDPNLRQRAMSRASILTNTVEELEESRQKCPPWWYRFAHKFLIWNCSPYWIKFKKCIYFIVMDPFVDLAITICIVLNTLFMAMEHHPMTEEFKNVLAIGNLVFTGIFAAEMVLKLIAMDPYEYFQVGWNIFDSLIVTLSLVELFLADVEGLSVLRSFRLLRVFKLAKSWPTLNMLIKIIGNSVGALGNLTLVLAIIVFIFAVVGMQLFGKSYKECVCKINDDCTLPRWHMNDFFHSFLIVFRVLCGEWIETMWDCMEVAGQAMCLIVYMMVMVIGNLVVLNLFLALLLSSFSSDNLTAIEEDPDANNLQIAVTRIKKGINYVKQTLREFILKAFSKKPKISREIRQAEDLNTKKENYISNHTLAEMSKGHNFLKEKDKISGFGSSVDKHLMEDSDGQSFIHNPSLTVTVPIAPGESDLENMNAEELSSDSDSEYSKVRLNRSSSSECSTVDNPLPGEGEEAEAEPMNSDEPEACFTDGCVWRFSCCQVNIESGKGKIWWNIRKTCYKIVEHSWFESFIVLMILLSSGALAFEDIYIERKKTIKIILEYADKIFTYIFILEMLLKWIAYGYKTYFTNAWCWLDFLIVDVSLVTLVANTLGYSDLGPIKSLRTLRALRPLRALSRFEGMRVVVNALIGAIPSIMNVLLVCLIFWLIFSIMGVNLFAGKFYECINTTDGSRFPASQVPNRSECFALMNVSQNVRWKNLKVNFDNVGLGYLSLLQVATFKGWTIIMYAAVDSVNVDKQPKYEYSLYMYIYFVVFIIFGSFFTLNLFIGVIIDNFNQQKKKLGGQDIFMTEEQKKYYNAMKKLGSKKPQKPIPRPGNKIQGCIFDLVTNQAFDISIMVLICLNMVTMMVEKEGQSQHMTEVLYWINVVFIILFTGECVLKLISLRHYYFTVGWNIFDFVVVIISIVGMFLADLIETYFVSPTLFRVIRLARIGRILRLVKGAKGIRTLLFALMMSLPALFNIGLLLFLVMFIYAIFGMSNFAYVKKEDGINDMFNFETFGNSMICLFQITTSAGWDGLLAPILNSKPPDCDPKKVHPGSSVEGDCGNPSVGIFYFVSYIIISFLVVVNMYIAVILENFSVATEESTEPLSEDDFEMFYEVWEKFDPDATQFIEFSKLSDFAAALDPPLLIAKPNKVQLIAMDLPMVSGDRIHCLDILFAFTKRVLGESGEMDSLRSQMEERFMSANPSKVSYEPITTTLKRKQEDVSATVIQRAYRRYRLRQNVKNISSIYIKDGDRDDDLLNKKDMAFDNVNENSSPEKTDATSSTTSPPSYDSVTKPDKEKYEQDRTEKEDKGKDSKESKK
T2 sequence (Q14524 whole entry): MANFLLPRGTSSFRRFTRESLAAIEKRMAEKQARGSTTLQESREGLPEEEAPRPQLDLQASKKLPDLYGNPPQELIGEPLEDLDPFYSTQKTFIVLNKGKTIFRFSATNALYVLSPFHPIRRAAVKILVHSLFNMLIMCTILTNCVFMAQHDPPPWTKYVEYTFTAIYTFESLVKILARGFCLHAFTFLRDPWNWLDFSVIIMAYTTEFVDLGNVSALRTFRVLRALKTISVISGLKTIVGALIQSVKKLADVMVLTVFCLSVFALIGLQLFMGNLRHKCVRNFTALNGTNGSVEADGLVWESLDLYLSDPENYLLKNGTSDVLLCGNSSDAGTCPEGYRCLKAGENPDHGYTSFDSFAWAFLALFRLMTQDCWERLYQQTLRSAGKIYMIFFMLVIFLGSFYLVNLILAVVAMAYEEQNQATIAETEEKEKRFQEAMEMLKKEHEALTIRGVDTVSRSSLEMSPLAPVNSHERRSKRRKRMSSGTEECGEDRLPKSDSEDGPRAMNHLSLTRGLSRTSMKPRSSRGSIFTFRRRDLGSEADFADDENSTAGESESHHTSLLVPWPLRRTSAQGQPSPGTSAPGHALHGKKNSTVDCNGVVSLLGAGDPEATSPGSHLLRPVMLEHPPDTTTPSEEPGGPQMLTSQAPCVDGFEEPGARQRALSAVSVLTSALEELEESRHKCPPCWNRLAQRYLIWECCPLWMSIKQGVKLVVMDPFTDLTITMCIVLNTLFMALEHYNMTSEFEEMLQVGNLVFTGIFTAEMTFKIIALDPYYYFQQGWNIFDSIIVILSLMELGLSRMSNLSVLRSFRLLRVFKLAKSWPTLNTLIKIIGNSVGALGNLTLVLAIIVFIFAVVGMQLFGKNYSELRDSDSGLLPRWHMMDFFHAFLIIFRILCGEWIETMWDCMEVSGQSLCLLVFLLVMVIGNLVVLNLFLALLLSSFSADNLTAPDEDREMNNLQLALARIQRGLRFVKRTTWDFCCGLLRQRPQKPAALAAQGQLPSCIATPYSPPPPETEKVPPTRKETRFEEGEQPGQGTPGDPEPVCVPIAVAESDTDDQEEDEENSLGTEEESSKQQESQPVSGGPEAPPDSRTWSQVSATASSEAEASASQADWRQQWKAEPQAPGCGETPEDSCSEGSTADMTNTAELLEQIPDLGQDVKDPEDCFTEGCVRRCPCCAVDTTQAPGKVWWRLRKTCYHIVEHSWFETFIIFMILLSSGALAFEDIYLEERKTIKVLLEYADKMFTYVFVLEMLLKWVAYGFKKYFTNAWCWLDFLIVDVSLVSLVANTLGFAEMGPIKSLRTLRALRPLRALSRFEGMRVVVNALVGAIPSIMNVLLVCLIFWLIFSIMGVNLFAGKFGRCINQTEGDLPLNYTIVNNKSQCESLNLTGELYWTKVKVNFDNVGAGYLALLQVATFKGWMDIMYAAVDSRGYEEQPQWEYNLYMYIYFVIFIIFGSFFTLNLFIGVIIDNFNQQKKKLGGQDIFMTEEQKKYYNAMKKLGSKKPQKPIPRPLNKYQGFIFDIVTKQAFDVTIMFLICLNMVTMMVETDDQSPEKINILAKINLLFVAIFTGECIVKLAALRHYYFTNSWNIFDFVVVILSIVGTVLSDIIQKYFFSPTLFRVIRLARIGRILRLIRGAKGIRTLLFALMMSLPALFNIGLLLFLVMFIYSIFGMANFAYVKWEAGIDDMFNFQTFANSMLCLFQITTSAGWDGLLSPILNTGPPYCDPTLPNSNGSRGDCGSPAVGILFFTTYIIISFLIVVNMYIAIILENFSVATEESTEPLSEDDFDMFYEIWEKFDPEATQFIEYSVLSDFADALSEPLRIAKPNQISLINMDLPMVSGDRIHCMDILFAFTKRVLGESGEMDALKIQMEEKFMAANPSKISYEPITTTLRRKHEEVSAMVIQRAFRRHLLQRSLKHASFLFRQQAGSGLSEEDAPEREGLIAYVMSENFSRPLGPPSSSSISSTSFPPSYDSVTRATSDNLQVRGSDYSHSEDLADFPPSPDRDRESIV

For `C[C@@H]1CC[C@@]2(CNc3cc(F)c(S(=O)(=O)Nc4nccs4)cc3Cl)CCCN12` (single isomer, unassigned) [Ex11-8-B], the IC50 on human Nav1.7 worked out at 0.006 µM. Moreover, the “ratio of Nav1.7 potency:Nav 1.5 potency” value on human Nav1.5 is on record as 2533. For `O=S(=O)(Nc1ccc(F)cn1)c1cc(Cl)c(NCC23CCCN2CCC3)cc1F` [Ex3-7, 5-chloro-2-fluoro-N-(5-fluoropyridin-2-yl)-4-[(tetrahydro-1H-pyrrolizin-7a(5H)-ylmethyl)amino]benzene-sulfonamide], on human Nav1.7, the IC50 was found to be 0.32 µM. In addition, the “ratio of Nav1.7 potency:Nav 1.5 potency” value on human Nav1.5 is 94. Taken in the same sequence, the figures for `O=S(=O)(Nc1ncc(F)s1)c1ccc(NCC23CCCN2CC(F)C3)c(C(F)(F)F)c1` (single isomer, unassigned) [Ex9-12-A, 4-((((2R,7aS or 2S,7aR)-2-fluoro-hexahydro-1H-pyrrolizin-7a-yl)-methyl)amino)-N-(5-fluorothiazol-2-yl)-3-(trifluoromethyl)-benzenesulfonamide] were 0.089 µM and 338.

Regarding `O=S(=O)(Nc1cccnn1)c1cc(Cl)c(NCC23CCCN2CCC3)cc1F` [Ex3-5, 5-chloro-2-fluoro-N-(pyridazin-3-yl)-4-[(tetrahydro-1H-pyrrolizin-7a(5H)-ylmethyl)amino]benzene-sulfonamide], the IC50 on human Nav1.7 came out at 1 µM. Moreover, the “ratio of Nav1.7 potency:Nav 1.5 potency” value on human Nav1.5 is listed as 100. In the same order, the values of `N#Cc1cc(S(=O)(=O)Nc2nccs2)c(F)cc1NCC12CCCN1CCC2` [Ex1-10, 5-cyano-2-fluoro-4-[(tetrahydro-1H-pyrrolizin-7a(5H)-ylmethyl)amino]-N-(1,3-thiazol-2-yl)benzenesulfonamide] are 0.221 µM and 94. Taken in the same sequence, the figures for `CC(Nc1cc(F)c(S(=O)(=O)Nc2nccs2)cc1Cl)C12CCCN1CCC2` (single isomer, unassigned) [Ex5-8, 5-chloro-2-fluoro-4-{[(R or S)1-(tetrahydro-1H-pyrrolizin-7a(5H)-yl)ethyl]amino}-N-(1,3-thiazol-2-yl)benzenesulfonamide] were 0.052 µM and 407. Taken in the same sequence, the figures for `CC1CCC2(CNc3ccc(S(=O)(=O)Nc4ncc(F)s4)cc3Cl)CCCN12` (single isomer, unassigned) [Ex11-12-B, 3-chloro-N-(5-fluorothiazol-2-yl)-4-((((3R,7aR or 3S,7aS)-3-methylhexahydro-1H-pyrrolizin-7a-yl)methyl)-amino)benzene-sulfonamide] were 0.03 µM and 1017. For `CC(Nc1cc(F)c(S(=O)(=O)Nc2nccs2)cc1Cl)C12CCCN1CCC2` (single isomer, unassigned) [Ex5-9, 5-chloro-2-fluoro-4-{[(1S or R)-1-(tetrahydro-1H-pyrrolizin-7a(5H)-yl)ethyl]amino}-N-(1,3-thiazol-2-yl)benzenesulfonamide], the IC50 at human Nav1.7 was determined as 1.09 µM. Besides, the “ratio of Nav1.7 potency:Nav 1.5 potency” value on human Nav1.5 is reported as 26. For `CC1(C)CN2CCCC2(CNc2ccc(S(=O)(=O)Nc3nccs3)cc2C(F)(F)F)C1` (single isomer, unassigned) [Ex8-23-B, (S or R) 4-(((2,2-dimethylhexahydro-1H-pyrrolizin-7a-yl)methyl)amino)-N-(thiazol-2-yl)-3-(trifluoromethyl)-benzenesulfonamide], the IC50 at human Nav1.7 amounted to 0.031 µM. Also, on human Nav1.5, the “ratio of Nav1.7 potency:Nav 1.5 potency” value stood at 981. For `CCc1cc(S(=O)(=O)Nc2nccs2)c(F)cc1NCC12CCCN1CCC2` [Ex18-7, 5-ethyl-2-fluoro-4-(((hexahydro-1H-pyrrolizin-7a-yl)-methyl)amino)-N-(thiazol-2-yl)-benzenesulfonamide], the IC50 at human Nav1.7 was found to be 0.019 µM. At human Nav1.5, the “ratio of Nav1.7 potency:Nav 1.5 potency” value is recorded as 672. Consider `O=S(=O)(Nc1ncc(F)s1)c1ccc(NCC23CCCN2CC(F)C3)c(C(F)(F)F)c1` (single isomer, unassigned) [Ex9-12-B, 4-((((2S,7aR or 2R,7aS)-2-fluoro-hexahydro-1H-pyrrolizin-7a-yl)methyl)amino)-N-(5-fluorothiazol-2-yl)-3-(trifluoromethyl)-benzenesulfonamide], for which the IC50 at human Nav1.7 is 0.08 µM. The “ratio of Nav1.7 potency:Nav 1.5 potency” value at human Nav1.5 came to 300.

`N#Cc1cc(S(=O)(=O)Nc2nccs2)ccc1NCC12CCCN1CCC2` [Ex2-2, 3-cyano-4-[(tetrahydro-1H-pyrrolizin-7a(5H)-ylmethyl)amino]-N-(1,3-thiazol-2-yl)benzenesulfonamide]: the IC50 at human Nav1.7 stood at 0.04 µM. Also, the “ratio of Nav1.7 potency:Nav 1.5 potency” value on human Nav1.5 is listed as 746. Taken in the same sequence, the figures for `O=S(=O)(Nc1ncc(F)s1)c1cc(Cl)c(NCC23CCCN2CC(F)C3)cc1F` (single isomer, unassigned) [Ex9-10-B, 5-chloro-2-fluoro-4-((((2S,7aR or 2R,7aS)-2-fluoro-hexahydro-1H-pyrrolizin-7a-yl)-methyl)amino)-N-(5-fluorothiazol-2-yl)-benzenesulfonamide] were 0.058 µM and 122. Taken in the same sequence, the figures for `O=S(=O)(Nc1nccs1)c1cc(Cl)c(NCC23CCCN2C(CF)CC3)cc1F` (racemic) [Ex14-10, 5-chloro-2-fluoro-4-((((3S,7aS and 3R,7aR)-3-(fluoromethyl)hexahydro-1H-pyrrolizin-7a-yl)methyl)amino)-N-(thiazol-2-yl)benzenesulfonamide] were 0.059 µM and 509. Turning to `O=S(=O)(Nc1nccs1)c1cc(Cl)c(NC[C@@]23CCCN2CC2(CC2)C3)cc1F` (single isomer, unassigned) [Ex13-10-A], on human Nav1.7, the IC50 was found to be 0.126 µM. For the same compound, the “ratio of Nav1.7 potency:Nav 1.5 potency” value on human Nav1.5 is on record as 113.

Turning to `O=S(=O)(Nc1nccs1)c1cc(Cl)c(NCC23CCCCN2CCC3)cc1F` (single isomer, unassigned) [Ex17-7-B, (R or S) 5-chloro-2-fluoro-4-(((octahydroindolizin-8a-yl)methyl)amino)-N-(thiazol-2-yl)benzenesulfonamide], on human Nav1.7, the IC50 was determined as 0.185 µM. In addition, the “ratio of Nav1.7 potency:Nav 1.5 potency” value at human Nav1.5 was 193. Turning to `CCc1cc(S(=O)(=O)Nc2nccs2)c(F)cc1NC[C@]12CCCN1C[C@@H](Cc1ccc(OC)cc1)C2` (single isomer, unassigned) [Ex18-5-B], the IC50 on human Nav1.7 was found to be 0.04 µM. For the same compound, on human Nav1.5, the “ratio of Nav1.7 potency:Nav 1.5 potency” value worked out at 359. In the same order, the values of `N#Cc1cc(S(=O)(=O)Nc2nccs2)ccc1NCC12CCCN1CC(F)(F)C2` (racemic) [Ex6-6, (R and S)-3-cyano-4-{[(2,2-difluorotetrahydro-1H-pyrrolizin-7a(5H)-yl)methyl]amino}-N-(1,3-thiazol-2-yl)benzenesulfonamide] are 0.472 µM and 64. In the same order, the values of `O=S(=O)(Nc1nccs1)c1ccc(NCC23CCCN2CCC3)c(Cl)c1` [Ex1-14, 3-chloro-4-(((hexahydro-1H-pyrrolizin-7a-yl)methyl)amino)-N-(thiazol-2-yl)benzenesulfonamide] are 0.048 µM and 337. Taken in the same sequence, the figures for `O=S(=O)(Nc1nncs1)c1cc(Cl)c(NCC23CCCN2CCC3)cc1F` [Ex1-5, 5-chloro-2-fluoro-4-[(tetrahydro-1H-pyrrolizin-7a(5H)-ylmethyl)amino]-N-(1,3,4-thiadiazol-2-yl)benzenesulfonamide] were 0.37 µM and 81. Regarding `O=S(=O)(Nc1ncc(F)s1)c1ccc(NCC23CCCN2CC(F)C3)c(Cl)c1` (single isomer, unassigned) [Ex9-14-A, 3-chloro-4-((((2R,7aS or 2S,7aR)-2-fluoro-hexahydro-1H-pyrrolizin-7a-yl)-methyl)amino)-N-(5-fluorothiazol-2-yl)-benzenesulfonamide], on human Nav1.7, the IC50 stood at 0.144 µM. At human Nav1.5, the “ratio of Nav1.7 potency:Nav 1.5 potency” value was determined as 208.

`O=S(=O)(Nc1nccs1)c1cc(Cl)c(NC[C@]23CCCN2CC2(CC2)C3)cc1F` (single isomer, unassigned) [Ex13-10-B]: the IC50 on human Nav1.7 amounted to 0.016 µM. Moreover, on human Nav1.5, the “ratio of Nav1.7 potency:Nav 1.5 potency” value was 406. Taken in the same sequence, the figures for `O=S(=O)(Nc1ncc(F)s1)c1ccc(NCC23CCCN2CC2(CC2)C3)c(C(F)(F)F)c1` (single isomer, unassigned) [Ex13-12-B, (R or S)-N-(5-fluorothiazol-2-yl)-4-(((hexahydrospiro-[cyclopropane-1,2′-pyrrolizin]-7a′-yl)methyl)-amino)-3-(trifluoromethyl)-benzenesulfonamide] were 0.007 µM and 3240. In the same order, the values of `CCc1cc(S(=O)(=O)Nc2nccs2)c(F)cc1NCC12CCCN1CC(C)(C)C2` (single isomer, unassigned) [Ex18-9-A, (S or R)-4-(((2,2-dimethylhexahydro-1H-pyrrolizin-7a-yl)-methyl)-amino)-5-ethyl-2-fluoro-N-(thiazol-2-yl)-benzenesulfonamide] are 0.055 µM and 548. On to `CC1CN2CCCC2(CNc2cc(F)c(S(=O)(=O)Nc3nccs3)cc2Cl)C1` [Ex4-9, 5-chloro-2-fluoro-4-{[((2S,7aR and 2R,7aS)-2-methyl-tetrahydro-1H-pyrrolizin-7a(5H)-yl)methyl]amino}-N-(1,3-thiazol-2-yl)-benzenesulfonamide], for which the IC50 at human Nav1.7 was 0.009 µM.

(Values after patent US9586968B2, “Bicycloamine-substituted-N-benzenesulfonamide compounds with selective activity in voltage-gated sodium channels” (Merck Sharp & Dohme Corp., priority 2013, dated 2017).)
